According to article PMC2964152 (Journal of medicinal chemistry, 2010):
Where a name gives a salt, the structure may show the parent alone. Values belong to the molecule of their own block, whether it stands above or below them.

How the values were obtained:
[1] = tested on: three melanoma cell lines and four human prostate cancer cell lines; assay: In vitro growth inhibition, average of all seven cell lines; type: cell-based; conditions: for IC50: read-out: average IC50, average of all seven cell lines, as given in the text
[2] = Body weight during the in vivo efficacy study; conditions: any of the treatment groups, during the experiment
Bovine brain tubulin = assay: In vitro microtubule polymerization assay; type: biochemical; conditions: 10 μM compound, absorbance at 340 nm, 15 min, 37°C
[3] = Aqueous solubility, miniaturized shake-flask method with LC-MS/MS; type: physicochemical
MDA-MB-435 = assay: In vitro growth inhibition, sensitive parent melanoma cell line; type: cell-based, human; conditions: read-out: IC50 ± SEM MDA-MB-435, n=3

Molecule: O=S(=O)(c1ccccc1)n1ccnc1-c1ccccc1 [3a, 2-Phenyl-1-(phenylsulfonyl)-1H-imidazole]
IC50 [1]: > 10000 nM

Molecule: O=S(=O)(c1ccccc1)n1ccnc1-c1ccc(OCc2ccccc2)cc1 [3j, 2-(4-(Benzyloxy)phenyl)-1-(phenylsulfonyl)-1H-imidazole]
IC50 [1]: > 10000 nM

Molecule: O=[N+]([O-])c1ccc(-c2nccn2S(=O)(=O)c2ccccc2)cc1 [3x, 2-(4-Nitrophenyl)-1-(phenylsulfonyl)-1H -imidazole]
IC50 [1]: > 10000 nM

Molecule: COc1cc(C(=O)n2ccnc2-c2ccccc2)cc(OC)c1OC [5aaa, (2-Phenyl-1H-imidazol-1-yl)(3,4,5-trimethoxyphenyl) methanone]
IC50 [1]: > 10000 nM

Molecule: COc1ccc(C(=O)n2ccnc2-c2ccccc2)cc1 [5aba, (4-Methoxyphenyl)(2-phenyl-1H-imidazol-1-yl) methanone]
IC50 [1]: > 10000 nM

Molecule: COc1ccc(-c2nc(C(=O)c3ccc(F)cc3)c[nH]2)cc1 [5cb, (4-Fluorophenyl)(2-(4-methoxyphenyl)-1H-imidazol-4-yl)methanone]
weight loss [2]: No significant weight loss

Molecule: COc1cc(C(=O)c2c[nH]c(-c3ccc(C)cc3)n2)cc(OC)c1OC [5da, (2-(p-Tolyl)-1H-imidazol-4-yl)(3,4,5-trimethoxyphenyl)methanone]
inhibition of tubulin polymerization (Bovine brain tubulin): completely inhibited

Molecule: Cc1ccc(-c2nc(C(=O)c3ccc(F)cc3)c[nH]2)cc1 [5db-HCl, (4-Fluorophenyl)(2-(p-tolyl)-1H-imidazol-4-yl)methanone HCl salt]
IC50 [1]: 172 nM

Molecule: COc1cc(C(=O)c2c[nH]c(-c3ccc(N(C)C)cc3)n2)cc(OC)c1OC [5ga, (2-(4-(Dimethylamino)phenyl)-1H-imidazol-4-yl)(3,4,5-trimethoxyphenyl)methanone]
IC50 [1]: 131 nM
aqueous solubility, times greater than SMART-1 ([3]; buffer pH7.0): about 50 times
aqueous solubility, times greater than SMART-1 ([3]; water): ~10 times

Molecule: COc1ccc(-c2nc(C(=O)c3cc(OC)c(OC)c(OC)c3)c[nH]2)cc1OC [5ha, (2-(3,4-Dimethoxyphenyl)-1H-imidazol-4-yl)(3,4,5-trimethoxyphenyl)methanone]
IC50 [1]: 330 nM

Molecule: CN(C)/N=N/c1[nH]cnc1C(N)=O [DTIC, dacarbazine, reference compound]
weight loss [2]: No significant weight loss

Molecule: (2-(3, 4-Dimethoxyphenyl)-1-(phenylsulfonyl)-1H-imidazol-4-yl)(3,4,5-trimethoxyphenyl)methanone [4ha]
IC50 [1]: 268 nM

Molecule: (2-(4-(Benzyloxy)phenyl)-1-(phenylsulfonyl)-1 H-imidazol-4-yl)(4-fluorophenyl) methanone [4jb]
IC50 [1]: 61 nM

Molecule: (2-(4-(Dimethylamino)phenyl)-1-(phenylsulfonyl)-1H-imidazol-4-yl)(3, 4, 5-trimethoxyphenyl) methanone [4ga]
IC50 [1]: 285 nM

Molecule: (2-(4-(Dimethylamino)phenyl)-1-(phenylsulfonyl)-1H-imidazol-4-yl)(4-fluorophenyl)methanone [4gb]
IC50 [1]: 87 nM

Molecule: (2-(4-Chlorophenyl)-1-(phenylsulfonyl)-1H-imidazol-4-yl)(4-fluorophenyl)methanone [4fb]
IC50 (MDA-MB-435): 50 ± 6 nM

Molecule: (4-Fluorophenyl)(1-(phenylsulfonyl)-2-(p-tolyl)-1H-imidazol-4-yl) methanone [4db]
IC50 [1]: 111 nM

Molecule: (4-Fluorophenyl)(2-(4-methoxyphenyl)-1-(phenylsulfonyl)-1H-imidazol-4-yl) methanone [4cb]
IC50 (MDA-MB-435): 38 ± 3 nM
IC50 [1]: 43 nM

The next lines start with results.

IC50 [1]: > 10000 nM
Molecule: COc1ccc(C(=O)c2c[nH]c(-c3ccccc3)n2)cc1 [5ab, (4-Methoxyphenyl)(2-phenyl-1 H-imidazol-4-yl)methanone]

IC50 [1]: > 10000 nM
Molecule: COc1cccc(C(=O)c2c[nH]c(-c3ccccc3)n2)c1 [5ac, (3-Methoxyphenyl)(2-phenyl-1H-imidazol-4-yl)methanone]

IC50 [1]: > 10000 nM
Molecule: COc1ccc(C(=O)c2c[nH]c(-c3ccccc3)n2)cc1OC [5ae, (3,4-Dimethoxyphenyl)(2-phenyl-1H-imidazol-4-yl)methanone]

IC50 [1]: > 10000 nM
Molecule: O=C(c1cccc(F)c1)c1c[nH]c(-c2ccccc2)n1 [5ag, (3-Fluorophenyl)(2-phenyl-1H-imidazol-4-yl)methanone]

IC50 [1]: > 10000 nM
Molecule: Cc1ccc(C(=O)c2c[nH]c(-c3ccccc3)n2)cc1 [5ah, (2-Phenyl-1H-imidazol-4-yl)(p-tolyl)methanone]

IC50 [1]: > 10000 nM
Molecule: Cc1cccc(C(=O)c2c[nH]c(-c3ccccc3)n2)c1 [5ai, (2-Phenyl-1H-imidazol-4-yl)(m-tolyl)methanone]

IC50 [1]: > 10000 nM
Molecule: COc1cc(C(=O)c2c[nH]c(-c3cc(OC)c(OC)c(OC)c3)n2)cc(OC)c1OC [5ea, (3,4,5-Trimethoxyphenyl)(2-(3,4,5-trimethoxyphenyl)-1H-imidazol-4-yl)methanone]

IC50 [1]: > 10000 nM
Molecule: COc1cc(-c2nc(C(=O)c3ccc(F)cc3)c[nH]2)cc(OC)c1OC [5eb, (4-Fluorophenyl)(2-(3,4,5-trimethoxyphenyl)-1H-imidazol-4-yl)methanone]

IC50 [1]: 7300 nM
Molecule: COc1cc(C(=O)c2c[nH]c(-c3ccc(OCc4ccccc4)cc3)n2)cc(OC)c1OC [5ja, (2-(4-(Benzyloxy)phenyl)-1H-imidazol-4-yl)(3,4,5-trimethoxyphenyl)methanone]

IC50 [1]: 75 nM
Molecule: O=C(c1ccc(F)cc1)c1c[nH]c(-c2ccc(OCc3ccccc3)cc2)n1 [5jb, (2-(4-(Benzyloxy)phenyl)-1H-imidazol-4-yl)(4-fluorophenyl)methanone]
fold increase in activity compared with 5kb ([1]; from average IC50 values): 440 fold

IC50 [1]: 193 nM
Molecule: COc1cc(C(=O)c2c[nH]c(-c3ccc(C(F)(F)F)cc3)n2)cc(OC)c1OC [5la, (2-(4-(Trifluoromethyl)phenyl)-1H-imidazol-4-yl)(3,4,5-trimethoxyphenyl)methanone]
fold decrease of activity compared with compound 5da ([1]; from average IC50 values): 12 fold

IC50 [1]: > 10000 nM
Molecule: (4-Fluorophenyl)(2-(2-(trifluoromethyl)phenyl)-1H-imidazol-4-yl)methanone [5ib]
